From patent publication EP0854192A2, “Production of human cathepsin and its use” (Takeda Chemical Industries, Ltd., priority 1992, dated 1994)
Where a SMILES comes first, the peptide text is derived from it. [ ]: non-standard residue; d: D form. The star is where a group is joined. Sta = CC(C)C[C@H](N)[C@@H](O)CC(=O)O; Isovaleryl = CC(C)CC(=O)*; Cbz = O=C(OCc1ccccc1)*; CHN2 = [N-]=[N+]=C*

Target: human cathepsin L (recombinant, of human renal origin cDNA, expressed in COS-7 cells, concentrated culture supernatant) (Homo sapiens, UniProt P07711)
Assay: Cathepsin L enzyme activity assay with synthetic substrate Z-Phe-Arg-NMec in the presence of enzyme inhibitors (method of Barrett and Kirschke)
Type: biochemical
Conditions: 30°C, 10 minutes; for remaining activity at 1 µM: 1 µM inhibitor added after enzyme activation
Experimental: The culture supernatant of COS-7 transformant prepared in Example 2 was concentrated about 20-fold with Centricut (produced by Kurabo Industries, Ltd., cut-off molecular weight = 10000) and assayed for cathepsin L enzyme activity, according to the method of A. J. Barrett and H. Kirschke [Methods in Enzymology 80, 535 (1981)]. To 25 µl of this concentrated culture supernatant were added 25 µl of 1 M sodium formate buffer (pH 3.0) and 10 µl of 0.1 M DTT, and water was added for a final volume of 250 µl, followed by incubation at 37°C for 30 seconds. After 125 µl of activating buffer (340 mM sodium acetate, 60 mM acetic acid, 4 mM EDTA disodium, pH 5.5) was added, the mixture was kept standing at 30°C for 1 minute for activation. The enzyme reaction was carried out at 30°C for 10 minutes in the presence of 125 µl of a synthetic substrate solution [20 µM Z-Phe-Arg-NMec (Z: benzyloxycarbonyl-, NMec: -7-(4-methyl)coumarylamide)], and stopped by the addition of 500 µl of a reaction stopper (100 mM sodium monochloroacetate, 30 mM sodium acetate, 70 mM acetic acid, pH 4.3). For a control experiment, a culture supernatant of COS-7 cells not expressing cathepsin L was used as an enzyme solution. After termination of the reaction, 100 µl of the reaction mixture was injected into a 96-well fluoroplate (produced by Labo Systems), and the fluorescence intensity of free 7-amino-4-methylcoumarin was determined at a wavelength of 450 nm (excitation wavelength = 365 nm) using a fluorometer FCA (produced by Baxter). In assessing the effects of the following enzyme inhibitors on the present enzyme activity, the inhibitor was added after the above enzyme activating operation. The enzyme inhibitors used were 10 µM leupeptin (cysteine protease inhibitor), 10 µM (p-amidinophenyl)methanesulfonyl fluoride hydrochloride (APMSF: serine protease inhibitor), 1 µM Z-Phe-Phe-CHN2 (cathepsin L inhibitor, -CHN2: -diazomethane) and 1 µM pepstatin A (aspartic acid protease inhibitor).

[1] = read-out: enzyme activity in the presence of enzyme inhibitor, in comparison with the inhibitor-free control

human cathepsin L (recombinant, of human renal origin cDNA, expressed in COS-7 cells, concentrated culture supernatant), sequence (P07711 114-333): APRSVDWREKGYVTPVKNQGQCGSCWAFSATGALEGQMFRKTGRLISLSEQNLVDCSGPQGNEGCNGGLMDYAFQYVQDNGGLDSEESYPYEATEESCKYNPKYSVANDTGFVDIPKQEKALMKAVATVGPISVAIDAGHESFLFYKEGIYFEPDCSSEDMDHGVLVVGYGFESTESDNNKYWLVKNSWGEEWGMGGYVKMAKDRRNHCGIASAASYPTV

Row | Compound | remaining activity at 1 µM [1] [%] | also measured
1 | CC(=O)N[C@@H](CC(C)C)C(=O)N[C@@H](CC(C)C)C(=O)N[C@H](C=O)CCCNC(=N)N [leupeptin] | – | remaining activity at 10 µM (10 µM inhibitor added after enzyme activation, read-out: enzyme activity in the presence of enzyme inhibitor, in comparison with the inhibitor-free control): 3.4%
2 | Cl.N=C(N)c1ccc(CS(=O)(=O)F)cc1 [APMSF, (p-amidinophenyl)methanesulfonyl fluoride hydrochloride] | – | enzyme activity in the presence of enzyme inhibitor, in comparison with the inhibitor-free control (10 µM inhibitor added after enzyme activation, remaining activity): 79%
3 | [N-]=[N+]=CC(=O)[C@H](Cc1ccccc1)NC(=O)[C@H](Cc1ccccc1)NC(=O)OCc1ccccc1 [Z-Phe-Phe-CHN2] (Cbz-Phe-Phe-CHN2) | 6.3 | –
4 | CC(C)CC(=O)N[C@H](C(=O)N[C@H](C(=O)N[C@@H](CC(C)C)[C@@H](O)CC(=O)N[C@@H](C)C(=O)N[C@@H](CC(C)C)[C@@H](O)CC(=O)O)C(C)C)C(C)C [pepstatin A] (Isovaleryl-VV[Sta]A[Sta]-OH) | 99 | –
